Literature values as cited in patent US20260014182A1, “METHOD OF TREATING CANCER” (M.T.3, Inc., priority 2019, published 2026).

System: angiogenesis
Conditions: in-vitro test, used with radiation
For CCCCCCCCCCCCCCCCCCCCCC(=O)OCCCO[C@H]1O[C@H](CS(=O)(=O)[O-])[C@@H](O)[C@H](O)[C@H]1O.[Na+] [αSQAP C22:0], the angiogenesis is listed as “inhibited”.
For CCCCCCCCCC(=O)OCCCO[C@H]1O[C@H](CS(=O)(=O)[O-])[C@@H](O)[C@H](O)[C@H]1O.[Na+] [αSQAP C10:0], the angiogenesis is given as “inhibited”.
In the case of CCCCCCCCCCCCCC(=O)OCCCO[C@H]1O[C@H](CS(=O)(=O)[O-])[C@@H](O)[C@H](O)[C@H]1O.[Na+] [αSQAP C14:0], the angiogenesis is given as “inhibited”.
For CCCCCCCCCCCCCCCCCC(=O)OCCCO[C@@H]1O[C@H](CS(=O)(=O)[O-])[C@@H](O)[C@H](O)[C@H]1O.[Na+] [βSQAP C18:0], the angiogenesis is given as “inhibited”.
